Experimental data reported in patent publication US10464963B2, “Compounds from invasive Salvinias and methods of using the same” (STEPHEN F. AUSTIN STATE UNIVERSITY, priority 2013, dated 2019).
Where two headings read alike, the source gives them in different places.

Key:
[1] = system: human non-small cell lung cancer (A549); assay: Cytotoxicity assay (WST-8), A549; assay type: cell-based; settings: Homo sapiens
Procedure: (§1) PANC-1 and MRC-5 was cultured in complete growth medium according to the ATCC protocols. Cells were grown at 37° C. and 5% CO2 in humidified air.
(§2) Cytotoxicity of total extracts of S. molesta was tested against PANC-1, A549, PC-3, and MRC-5. Cytotoxicity of the fractions was determined using A549 cells, a human non-small lung cancer cell line. Fractions were tested at 25, 50, and 100 μg/mL. The isolated pure compounds were tested in each of the cultured human tumor and normal cell lines at various concentrations between 1 and 100 μM with three replications. Human tumor and normal cells were inoculated into 96 well microtiter plates in 90 μL at plating densities ranging from 5,000 to 40,000 cells/well (measured by Z2 Coulter Counter of Beckman) depending on the doubling time of individual cell lines. Cell growth and viability was measured by WST-8 (Water Soluble Tetrazolium) assays following a standard protocol (Cell Counting Kit-8, Dojindo Molecular, Maryland). The WST-8 assay measured the relative activity of mitochondrial reductase enzymes in viable cells. A control WST reading (T0) before treatment was measured, then cells were continuously exposed to isolates for 48 h. After WST added and incubated for 2 h, the amount of formazan was measured by using a microplate spectrophotometer (μQuant spectrophotometer, Bio-Tek Instruments, Inc., Vermont) at 450 nm. TC or TD represents the readings of the untreated control or with tested compounds. Percent cell-growth (G) and percent cell-growth inhibition (GI) was calculated as: G=(TD−T0/TC−T0)×100; GI=[1−(TD−T0/TC−T0)]×100 for which TD≥T0; and G=(TD−T0/T0)×100; GI=[1−(TD−T0/T0)]×100 for which TD≤T0. […] Cancer drug doxorubicin was used as the positive controls in the cell-based assays.

[2] = system: human prostate cancer (PC-3); assay: Cytotoxicity assay (WST-8), PC-3; assay type: cell-based; settings: Homo sapiens
Procedure: as §1, §2

human leukemia (HL-60) = assay: Cytotoxicity assay (WST-8), HL-60; assay type: cell-based; settings: Homo sapiens
[3] = system: human exocrine pancreatic cancer (PANC-1); assay: Cytotoxicity assay (WST-8), PANC-1; assay type: cell-based; settings: Homo sapiens
Procedure: as §1, §2

[4] = system: human exocrine pancreatic cancer (BxPC-3); assay: Cytotoxicity assay (WST-8), BxPC-3; assay type: cell-based; settings: Homo sapiens
[5] = system: human breast cancer (MDA-MB-231); assay: cells; assay type: cell-based
Text: Human exocrine pancreatic cancer (PANC-1 and BxPC-3), non-small cell lung cancer (A549), prostate cancer (PC-3), breast cancer (MDA-MB-231), and leukemia (HL-60) were obtained from The University of Texas M. D. Anderson Cancer Center, Houston, Tex., and Normal human lung fibroblasts cells (MRC-5) was purchased from the American Type Culture Collection (ATCC). PC-3, A549 and HL-60 cells were maintained in RPMI 1640 medium supplemented with 10% (v/v) fetal bovine serum and antibiotics (1,000 units/mL penicillin-streptomycin solution, Hyclone). PANC-1 and MRC-5 was cultured in complete growth medium according to the ATCC protocols. Cells were grown at 37° C. and 5% CO2 in humidified air.
Cytotoxicity of total extracts of S. molesta was tested against PANC-1, A549, PC-3, and MRC-5. Cytotoxicity of the fractions was determined using A549 cells, a human non-small lung cancer cell line. Fractions were tested at 25, 50, and 100 μg/mL. The isolated pure compounds were tested in each of the cultured human tumor and normal cell lines at various concentrations between 1 and 100 μM with three replications. Human tumor and normal cells were inoculated into 96 well microtiter plates in 90 μL at plating densities ranging from 5,000 to 40,000 cells/well (measured by Z2 Coulter Counter of Beckman) depending on the doubling time of individual cell lines. Cell growth and viability was measured by WST-8 (Water Soluble Tetrazolium) assays following a standard protocol (Cell Counting Kit-8, Dojindo Molecular, Maryland). The WST-8 assay measured the relative activity of mitochondrial reductase enzymes in viable cells. A control WST reading (T0) before treatment was measured, then cells were continuously exposed to isolates for 48 h. After WST added and incubated for 2 h, the amount of formazan was measured by using a microplate spectrophotometer (μQuant spectrophotometer, Bio-Tek Instruments, Inc., Vermont) at 450 nm. TC or TD represents the readings of the untreated control or with tested compounds. Percent cell-growth (G) and percent cell-growth inhibition (GI) was calculated as: G=(TD−T0/TC−T0)×100; GI=[1−(TD−T0/TC−T0)]×100 for which TD≥T0; and G=(TD−T0/T0)×100; GI=[1−(TD−T0/T0)]×100 for which TD≤T0. To determine the inhibitory potency of active compounds (GI50, 50% cell-growth inhibition), tests were extended to additional concentrations (varying from 0.01 to 100 μM). Cancer drug doxorubicin was used as the positive controls in the cell-based assays.

[6] = system: normal human lung fibroblasts cells (MRC-5); assay: Cytotoxicity assay (WST-8), MRC-5; assay type: cell-based
Procedure: as §1, §2

[7] = system: human exocrine pancreatic cancer cells (PANC-1); assay: Cell proliferation assay (CCK-8), PANC-1; assay type: cell-based; settings: 12, 24, 48, 72 h, FIG. 3
Procedure: (§3) CCK-8 (Dojindo Molecular, Maryland) was used to measure the proliferation response of salviniol (6) and montbretol (8) against human exocrine pancreatic cancer cell lines (PANC-1 and BxPC-3), according to the manufacturer's instructions. Cell were grown in growth medium plus 10% FBS and 5% antibiotics in 96-well plates and then were treated with various concentrations of test compounds and incubated for 12, 24, 48, and 72 h, respectively. The end of the incubation period, 10% CCK-8 solution was added to the wells. After 2 h incubation, the absorbance at 450 nm was measured. A calibration curve was prepared using the absorbance observed known numbers of viable cells.

[8] = system: human exocrine pancreatic cancer cells (BxPC-3); assay: Cell proliferation assay (CCK-8), BxPC-3; assay type: cell-based; settings: 12, 24, 48, 72 h, FIG. 3
Procedure: as §3

[9] = Cytotoxicity assay (WST-8), MRC-5; assay type: cell-based, human; settings: human
Procedure: as §1, §2

[10] = A549, 48 h, read-out: Cytotoxic activity (GI50) A549
[11] = A549, Table 1, read-out: Activity against human non-small cell lung tumor A549 (GI50) (converted)
[12] = 48 h, read-out: Cytotoxic activity (GI50) PC-3
[13] = HL-60, 48 h, read-out: Cytotoxic activity (GI50) HL-60
[14] = PANC-1, 48 h, read-out: Cytotoxic activity (GI50) PANC-1
[15] = PANC-1, Table 1, read-out: Activity against human exocrine pancreatic tumor PANC-1 (GI50)
[16] = BXPC-3, 48 h, read-out: Cytotoxic activity (GI50) BxPC-3
[17] = BXPC-3, Table 1, read-out: Activity against human exocrine pancreatic tumor BxPC-3 (GI50) (converted)
[18] = MDA-MB-231, 48 h, read-out: Cytotoxic activity (GI50) MDA-MB-231
[19] = MDA-MB-231, Table 1, read-out: Activity against human breast tumor MDA-MB-231 (GI50)

Compound | GI50 [1, 10] [µM] | GI50 [1, 11] [µM] | GI50 [2, 12] [µM] | GI50 (human leukemia (HL-60); [13]) [µM] | GI50 [3, 14] [µM] | GI50 [3, 15] [µM] | GI50 [4, 16] [µM] | GI50 [4, 17] [µM] | GI50 [5, 18] [µM] | GI50 [5, 19] [µM] | Effect on proliferation of PANC-1 cells (in words) [7] | Effect on proliferation of BxPC-3 cells (in words) [8] | GI50 at 48 h [9] [µM] | Toxicity against normal cell (in words) [6] | also measured
CC(C)c1cc2c(cc1O)[C@@]1(C)CCCC(C)(C)[C@@H]1C[C@H]2CC1=CCC(O)(C(C)C)CC1 (some centres unmarked) [Compound 6, 7-(menth-1-en-4-ol)-ferruginol] | 62.9 ± 9.63 | 62.9 | 54.2 ± 5.9 | 48.1 ± 10.9 | 60.4 ± 16.2 | 60.4 | 87.3 ± 24.5 | 87.3 | 75 ± 1.37 | 75 | inhibit human pancreatic cancer cell proliferation in a dose-dependent manner | inhibit human pancreatic cancer cell proliferation in a dose-dependent manner | – | – | GI50 ([2]; Table 1, read-out: Activity against human prostate tumor PC-3 (GI50) (converted)): 54.2 µM; GI50 (human leukemia (HL-60); HL-60, Table 1, read-out: Activity against human leukemia HL-60 (GI50) (converted)): 48.1 µM; GI50 ([6]; human, 48 h): 58.4 ± 6.83 µM
CC(C)c1cc2c(c(O)c1O)[C@@]1(C)CCCC(C)(C)C1=C(O)C2=O [Compound 7, 14-deoxycoleon U] | 9.1 ± 2.47 | 9.1 | 8.39 ± 0.86 | 13.3 ± 5.62 | 22.6 ± 4.18 | 22.6 | 37.3 ± 7.44 | 37.3 | > 100 | > 100 | – | – | 24.8 | no toxic against normal cell | –
CC(C)c1cc2c(cc1O)[C@@]1(C)CCCC(C)(C)C1=C(O)C2=O [Compound 8, montbretol] | – | 11.1 | – | – | – | 23.1 | – | 25 | – | – | inhibit human pancreatic cancer cell proliferation in a dose-dependent manner | inhibit human pancreatic cancer cell proliferation in a dose-dependent manner | 20 | no toxic against normal cell | GI50 ([1]; A549, Table 7, WST-8, 48 h exposure, mean ± S.D., read-out: Cytotoxic activity (GI50) A549): 11.1 ± 3.16 µM; GI50 ([2]; Table 7, WST-8, 48 h exposure, mean ± S.D., read-out: Cytotoxic activity (GI50) PC-3): 13.2 ± 2.03 µM; GI50 (human leukemia (HL-60); HL-60, Table 7, WST-8, 48 h exposure, mean ± S.D., read-out: Cytotoxic activity (GI50) HL-60): 11.5 ± 3.13 µM; GI50 ([3]; PANC-1, Table 7, WST-8, 48 h exposure, mean ± S.D., read-out: Cytotoxic activity (GI50) PANC-1): 23.1 ± 9.16 µM; GI50 ([4]; BXPC-3, Table 7, WST-8, 48 h exposure, mean ± S.D., read-out: Cytotoxic activity (GI50) BxPC-3): 25 ± 13.2 µM
CC(C)C1=C(O)C(=O)C2=C(C=CC3C(C)(C)CCC[C@]23C)C1=O (some centres unmarked) [Compound 21, 6,7-dehydroroyleanone] | 48 ± 7.75 | – | 46.3 ± 6.6 | 30 ± 8.3 | 51.3 ± 10 | – | 41.7 ± 2.92 | – | – | – | – | – | – | – | GI50 ([1]; A549, read-out: Activity against human non-small cell lung tumor A549 (GI50)): 48 µM; GI50 ([2]; read-out: Activity against human prostate tumor PC-3 (GI50)): 46.3 µM; GI50 (human leukemia (HL-60); HL-60, read-out: Activity against human leukemia HL-60 (GI50)): 30 µM; GI50 ([3]; PANC-1, read-out: Activity against human exocrine pancreatic tumor PANC-1 (GI50)): 51.3 µM; GI50 ([4]; BXPC-3, read-out: Activity against human exocrine pancreatic tumor BxPC-3 (GI50)): 41.7 µM; GI50 at 48 h ([9]; Table 7, normal lung cells, WST-8, 48 h exposure, mean ± S.D., read-out: Cytotoxic activity (GI50) MRC-5): 40.2 ± 2.06 µM
